From US5763492A, “Methods for effecting memory enhancement mediated by non-steroidal sulfatase inhibitors” (Duguesne University of the Holy Ghost, priority 1996, dated 1998)
“And” between values parts separate entries of the source, which are not always exact repeats. Equal entries are not always repeated. Structures can show the parent of a compound that is named as a salt.

Legend:
Format in all cases: in vivo, rat
[1] = test system: scopolamine-induced amnesia in rats; assay: Passive avoidance test (Gemini Avoidance System), crossover latency, scopolamine-induced amnesia
brain sulfatase = assay: Brain sulfatase activity after IP dosing of rats; details: 30 mg/kg IP; for Brain Sulfatase Activity: mean ± SEM, P<0.01 vs control, corn oil control 3.24 ± 0.32
Procedure: (§1) DU-14 was tested for its sulfatase inhibition in rats. 30 mg/kg of the compound was administered to rats IP for 15 days. Sulfatase inhibition was measured by the sulfatase activity in ng E1 S/μg protein/hr in the liver and brain as determined by methods known in the art. The results are presented below in Tables 1 and 2.

liver sulfatase = assay: Liver sulfatase activity after IP dosing of rats; details: for % Inhibition of liver sulfatase / Liver Sulfatase Activity: 30 mg/kg IP; for Liver Sulfatase Activity: mean ± SEM, P<0.01 vs control, corn oil control 164.10 ± 2.5
Procedure: as §1

Row | SMILES | maximum crossover latency ([1]; DHEAS 20 mg/Kg IP one hour before acquisition trial, scopolamine 1 mg/Kg IP 30 minutes before) [s] | reversal of scopolamine-induced amnesia ([1]; DHEAS 5-70 mg/kg IP one hour before acquisition trial, bell shaped dose response curve) | crossover latency ([1]; DU-14 alone 30 mg/Kg IP daily for 15 days before acquisition trial, scopolamine) | reversal of scopolamine-induced amnesia ([1]; DU-14 alone daily for 15 days, 30 mg/Kg IP) | crossover latency ([1]; DU-14 alone, single dose 30 mg/Kg IP four hours before acquisition trial) | crossover latency, overall conclusion ([1]; summary of Example III) | % Inhibition of brain sulfatase (brain sulfatase; 1 Day) [%] | Brain Sulfatase Activity (brain sulfatase; 1 Day) [pg E1 S/μg protein/hr] | Brain Sulfatase Activity (brain sulfatase; 15 Days) [pg E1 S/μg protein/hr] | % Inhibition of liver sulfatase (liver sulfatase; 1 Day) [%] | Liver Sulfatase Activity (liver sulfatase; 1 Day) [ng E1 S/μg protein/hr] | % Inhibition of liver sulfatase (liver sulfatase; 15 Days, 30 mg/kg) | Liver Sulfatase Activity (liver sulfatase; 15 Days) [ng E1 S/μg protein/hr] | liver sulfatase after only 1 day (liver sulfatase; 1 day, from about 164)
1 | C[C@]12CC[C@H](OS(=O)(=O)O)CC1=CC[C@@H]1[C@@H]2CC[C@]2(C)C(=O)CC[C@@H]12 [DHEAS, dehydroepiandrosterone sulfate, reference compound] | 262.5 ± 84.6 | significant (p≤0.05), reversal of scopolamine-induced amnesia |  |  |  |  |  |  |  |  |  |  |  | 
2 | CCCCCCCCCCCCCC(=O)NCCc1ccc(OS(N)(=O)=O)cc1 [DU-14] |  |  | 278.7±88.1 | significant (p≤0.05) reversal of scopolamine-induced amnesia | failed to increase crossover latency | significant increase in crossover latency | 14.8 | 2.76 ± 0.27 | 0.48 ± 0.10 | 95.2 | 7.85 ± 0.65 | 97.6% and ~98% | 4.01 ± 0.23 | about 8
